Test results taken from patent US6114310A, “Efflux pump inhibitors” (priority 1998, dated 2000).

System: Pseudomonas aeruginosa PAM1001
Experiment: microbe, parasite or virus in culture
Format: cell-based
Method in brief: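 Checkerboard broth microdilution (NCCLS) with the efflux pump inhibitor and levofloxacin, each diluted along one axis of the plate, in Mueller Hinton Broth. Inoculum 5×10^5 CFU/ml from early-log culture; incubation 20 h at 35° C. Growth read at 650 nm and visually.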

## β-(2-Thiaizolyl)alanyl-Nα -methylornithine 2-naphthylamide [Compound 30 (Table 1)]
Table 1, EPI Conc. 0 μg/ml
  Levofloxacin MIC Against P. aeruginosa PAM1001 in Presence of Efflux Pump Inhibitor (EPI), Minimum Inhibitory Concentration: 4 µg/mL
Table 1, EPI Conc. 0.625 μg/ml
  Levofloxacin MIC Against P. aeruginosa PAM1001 in Presence of Efflux Pump Inhibitor (EPI), Minimum Inhibitory Concentration: 4 µg/mL
Table 1, EPI Conc. 5 μg/ml
  Levofloxacin MIC Against P. aeruginosa PAM1001 in Presence of Efflux Pump Inhibitor (EPI), Minimum Inhibitory Concentration: 1 µg/mL
Table 1, EPI Conc. 10 μg/ml
  Levofloxacin MIC Against P. aeruginosa PAM1001 in Presence of Efflux Pump Inhibitor (EPI), Minimum Inhibitory Concentration: 0.25 µg/mL
Table 1, EPI Conc. 40 μg/ml
  Levofloxacin MIC Against P. aeruginosa PAM1001 in Presence of Efflux Pump Inhibitor (EPI), Minimum Inhibitory Concentration: 0.25 µg/mL
Table 1, EPI Conc. μg/ml (number not given; column between 10 and 40 μg/ml)
  Levofloxacin MIC Against P. aeruginosa PAM1001 in Presence of Efflux Pump Inhibitor (EPI), Minimum Inhibitory Concentration: 0.25 µg/mL
Table 2, EPI Conc. 0 μg/ml
  Levofloxacin MIC Against P. aeruginosa PAM1001 in Presence of Efflux Pump Inhibitor (EPI), Minimum Inhibitory Concentration: 4 µg/mL
Table 2, EPI Conc. 0.625 μg/ml
  Levofloxacin MIC Against P. aeruginosa PAM1001 in Presence of Efflux Pump Inhibitor (EPI), Minimum Inhibitory Concentration: 4 µg/mL
Table 2, EPI Conc. 5 μg/ml
  Levofloxacin MIC Against P. aeruginosa PAM1001 in Presence of Efflux Pump Inhibitor (EPI), Minimum Inhibitory Concentration: 2 µg/mL
Table 2, EPI Conc. 10 μg/ml
  Levofloxacin MIC Against P. aeruginosa PAM1001 in Presence of Efflux Pump Inhibitor (EPI), Minimum Inhibitory Concentration: 1 µg/mL
Table 2, EPI Conc. 40 μg/ml
  Levofloxacin MIC Against P. aeruginosa PAM1001 in Presence of Efflux Pump Inhibitor (EPI), Minimum Inhibitory Concentration: 0.25 µg/mL
Table 2, EPI Conc. […]
  Levofloxacin MIC Against P. aeruginosa PAM1001 in Presence of Efflux Pump Inhibitor (EPI), Minimum Inhibitory Concentration: 4 µg/mL
Table 2, EPI Conc. μg/ml (number not given; column between 10 and 40 μg/ml)
  Levofloxacin MIC Against P. aeruginosa PAM1001 in Presence of Efflux Pump Inhibitor (EPI), Minimum Inhibitory Concentration: 0.50 µg/mL
